Experimental data: patent US20100297109A1, “METHODS FOR INHIBITING FASCIN” (Cornell University, priority 2007, published 2010)

Assays:
[1] = test system: mouse breast tumor 4T1 cells; assay: Wound-healing assay, serum-induced migration of 4T1 cells; type: cell-based; conditions: 2 μM
Procedure: (§1) Cells. Mouse 4T1 mammary tumor cells and human MDA-MB-231 breast tumor cells were obtained from ATCC and have been described previously (Shan et al. 2005, Yang et al. 2005). 4T1 cells were cultured in RPMI 1640 medium supplemented with 10% FBS. MDA-MB-231 cells were cultured in DMEM supplemented with 10% FBS. Wound-healing assay. The wound-healing assay involves observing whether confluent cells can migrate across a scrape or wound in the cell layer. Cell migration assays were performed as described previously (Yang et al. 2005, Shan et al 2006). Tumor cells were plated in a 24-well plate coated with gelatin in standard media. After the cells grew to confluence, wounds were made in the confluent layer of cell using a sterile instrument such as a sterile pipette tip. The cells were washed with Phosphate Buffered Saline (PBS) or other sterile solutions and then the migration was induced by adding medium supplemented with 10% FBS. When the wound for the positive control closed, cells were fixed with 3.7% formaldehyde and stained with crystal violet staining solution. […] Photographs several random regions of the filter facing the second chamber are taken and the number of cells counted to calculate the average number of cells that had transmigrated.

[2] = test system: 4T1 cells; assay: Boyden chamber cell migration assay, serum-induced migration of 4T1 cells; type: cell-based, mouse; conditions: FIGS. 1C and 1D
Procedure: as §1, with “media.” for “media. After the cells grew to confluence, wounds were made in the confluent layer of cell using a sterile instrument such as a sterile pipette tip. The cells were washed with Phosphate Buffered Saline (PBS) or other sterile solutions and then the migration was induced by adding medium supplemented with 10% FBS. When the wound for the positive control closed, cells were fixed with 3.7% formaldehyde and stained with crystal violet staining solution.”
(§2) Boyden Chamber Cell Migration Assay. […] Three randomly selected fields (10× objectives) on the lower side of the insert were photographed, and the migrated cells were counted. The migration was expressed as either the average number of migrated cells in a field or as percentage of migrated cells in positive control. Percentage was calculated with the formula P=100×(M−Mnc)/Mpc, where P is the percentage of migrated cells, M is the number of migrated cells, Mnc is the number of migrated cells in negative controls, and Mpc is the number of migrated cells in positive controls.

[3] = test system: human breast tumor MDA-MB-231 cells; assay: Wound-healing assay, serum-induced migration of MDA-MB-231 cells; type: cell-based; conditions: 20 μM
Procedure: as §1

[4] = test system: mouse embryonic fibroblast (MEF) cells; assay: Wound-healing assay, serum-induced migration of MEF cells; type: cell-based; conditions: 200 μM
[5] = test system: human breast tumor MDA-MB 231 cells; assay: Cell migration assay, MDA-MB-231 cells; type: cell-based
Procedure: as §1, with “media.” for “media. After the cells grew to confluence, wounds were made in the confluent layer of cell using a sterile instrument such as a sterile pipette tip. The cells were washed with Phosphate Buffered Saline (PBS) or other sterile solutions and then the migration was induced by adding medium supplemented with 10% FBS. When the wound for the positive control closed, cells were fixed with 3.7% formaldehyde and stained with crystal violet staining solution.”
as §2

[6] = test system: human prostate tumor PC-3 cells; assay: Cell migration assay, PC-3 cells; type: cell-based
[7] = test system: human colon tumor Lovo cells; assay: Cell migration assay, Lovo cells; type: cell-based
[8] = test system: 4T1 cells; conditions: serum, Shan et al. 2005; cited from earlier work
[9] = biological target: T1, fascin (Homo sapiens, UniProt Q16658); assay: GST-fascin and biotin-macroketone interaction; type: binding; design: made in house; host or cells: Escherichia coli BL21; conditions: excess unlabeled compound
Procedure: Whole cell lysates from 4T1 mouse breast tumor cells were made. After preclearing the cell lysate with immobilized neutravidin biotin binding protein (Pierce, IL, USA) to remove biotin and avidin-binding proteins, the cell lysates were loaded to a column packed with the biotin-labeled macroketone (conjugated to neutravidin beads). A control column packed with free biotin and neutravidin beads was run side-by-side. After washing the column with 10 bed volumes of lysis buffer with 300 mM NaCl, the bound proteins were eluted with 0.1 M Glycine-HCl at pH 2.8 according to the manufacturer's instruction. […] Protein Expression and Purification. Recombinant GST-fascin fusion protein was produced in BL21 Escherichia coli. A 1-liter culture was grown to an A600 reading of 1.0 and then induced by addition of 0.3 mM isopropyl 1-thio-D-galactopyranoside (IPTG) for 12 hours at 25° C. Cells were flash frozen and then lysed by sonication in Tris-buffered saline. The supernatant was then incubated with glutathione-Sepharose for 2 h at 4° C. After extensive washing, GST-fascin was eluted and concentrated with a Centricon Plus-20 (Millipore). To remove the GST tag from the fusion protein, beads were incubated with thrombin overnight at 4° C. The supernatant was collected and concentrated. GST-fascin and Biotin-macroketone Interaction. […] Proteins associated with biotin-macroketone were precipitated with Untralink-immobilized NeutrAvidin agarose (Pierce). After extensive washing, bound proteins were eluted with SDS sample buffer and resolved by 10% SDS-PAGE. F-Actin Bundling Assay. Actin bundling activity was measured by low speed centrifugation assay and fluorescence microscopy. In low-speed centrifugation assay, monomeric rabbit G-actin was induced to polymerize at room temperature in F-actin buffer (20 mM Tris-HCl at pH 8, 1 mM ATP, 1 mM DTT, 2 mM MgCl2 and 100 mM KCl). Recombinant fascin proteins or control buffer were subsequently incubated with F-actin for 60 min at room temperature and centrifuged for 30 min at 10,000 g in an Eppendorf 5415D table-top centrifuge.

[10] = biological target: T1, fascin; assay: F-actin bundling assay, low-speed centrifugation (F-actin pelleting); type: biochemical; design: GST (N); made in house; host or cells: Escherichia coli BL21
Procedure: Whole cell lysates from 4T1 mouse breast tumor cells were made. After preclearing the cell lysate with immobilized neutravidin biotin binding protein (Pierce, IL, USA) to remove biotin and avidin-binding proteins, the cell lysates were loaded to a column packed with the biotin-labeled macroketone (conjugated to neutravidin beads). A control column packed with free biotin and neutravidin beads was run side-by-side. After washing the column with 10 bed volumes of lysis buffer with 300 mM NaCl, the bound proteins were eluted with 0.1 M Glycine-HCl at pH 2.8 according to the manufacturer's instruction. […] Protein Expression and Purification. Recombinant GST-fascin fusion protein was produced in BL21 Escherichia coli. A 1-liter culture was grown to an A600 reading of 1.0 and then induced by addition of 0.3 mM isopropyl 1-thio-D-galactopyranoside (IPTG) for 12 hours at 25° C. Cells were flash frozen and then lysed by sonication in Tris-buffered saline. The supernatant was then incubated with glutathione-Sepharose for 2 h at 4° C. After extensive washing, GST-fascin was eluted and concentrated with a Centricon Plus-20 (Millipore). To remove the GST tag from the fusion protein, beads were incubated with thrombin overnight at 4° C. The supernatant was collected and concentrated. […] Actin bundling activity was measured by low speed centrifugation assay and fluorescence microscopy. […]

[11] = biological target: T1, fascin; assay: Electron microscopy of fascin-induced F-actin bundles; type: biochemical; design: GST (N); made in house; host or cells: Escherichia coli BL21

Question: With `COC1C=CCCCCC(=O)CCC(C)=CC(C)C1O` (stereo not shown) [macroketone, Migrastatin ketone] as the molecule, how does the “inhibition of serum-induced migration (wound-healing)” value [1] read?
Answer: Its value is “inhibited the migration”.

Question: What about the IC50 [2] of the same molecule?
Answer: Its IC50 is 100 nM.

Question: What about the “inhibition of serum-induced migration (wound-healing)” value [3] of the same molecule?
Answer: The value was “inhibited the migration”.

Question: What about the “effect on serum-induced migration (wound-healing)” value [4] of the same molecule?
Answer: Its value is “had no effect”.

Question: And the inhibition of migration [5]?
Answer: The inhibition of migration was “inhibited the migration”.

Question: What about the inhibition of migration [6] of the same molecule?
Answer: Its inhibition of migration is “inhibited the migration”.

Question: What about the inhibition of migration [7] of the same molecule?
Answer: Its inhibition of migration is “inhibited the migration”.

Question: And the “formation of lamellipodia at the leading edge” value [8]?
Answer: The value was “inhibited the formation of lamellipodia”.

Question: What about the “competition of binding of biotin-conjugated macroketone to fascin” value [9] of the same molecule?
Answer: The value was “efficiently competed”.

Question: What about the “competition of binding of biotin-conjugated macroketone to fascin” value ([9]; listed as unlabeled macroketone) of the same molecule?
Answer: Its value is “decreased the binding”.

Question: And the “fascin-induced bundling of F-actin polymers” value ([10]; with fascin)?
Answer: Its value is “significantly decreased”.

Question: What about the “formation of F-actin bundles, compound alone” value ([10]; without fascin) of the same molecule?
Answer: Its value is “had no effect”.

Question: What about the “thickness of actin bundles” value [11] of the same molecule?
Answer: The value was “decreased the thickness of the bundles”.
